Type in all cases: biochemical
One assay deals with T1, BTK(h) (Homo sapiens, UniProt Q06187).
T1 construct: purchased Upstate Biotechnology (Dundee, UK), KinaseProfiler service
The experiment in a line: Upstate KinaseProfiler enzyme assay, BTK. To be noted: 500 nM compound; read-out: Percent inhibition at 500 nM BTK(h). Summed up:
(§1)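 First, enzymes were pre-diluted (10× working) in 20 mM MOPS, pH 7.0, supplemented with EDTA (1 mM), BSA (1 mg/ml) and glycerol (5%), plus 0.1% β-mercaptoethanol and 0.01% Brij-35. Next, they were added to the assay alongside substrates diluted in de-ionised water.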

For another assay, the target named is T2, human CSF1-R (FMS) (Homo sapiens, UniProt P07333).
T2 construct: from codon I553 to Q961; GST (N); made in house; host or cells: Sf9 insect cells (baculovirus)
T2 sequence (P07333 553-961): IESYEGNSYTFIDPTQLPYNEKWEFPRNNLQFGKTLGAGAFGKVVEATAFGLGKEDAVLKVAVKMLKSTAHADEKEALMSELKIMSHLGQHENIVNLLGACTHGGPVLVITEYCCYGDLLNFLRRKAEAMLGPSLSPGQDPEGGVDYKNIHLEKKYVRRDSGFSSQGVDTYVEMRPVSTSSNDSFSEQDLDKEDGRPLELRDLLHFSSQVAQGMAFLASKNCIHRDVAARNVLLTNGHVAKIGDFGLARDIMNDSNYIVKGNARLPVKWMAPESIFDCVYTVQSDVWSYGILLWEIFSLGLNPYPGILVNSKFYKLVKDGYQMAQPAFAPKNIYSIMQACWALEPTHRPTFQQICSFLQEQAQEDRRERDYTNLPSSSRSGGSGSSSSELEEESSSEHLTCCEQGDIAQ
Briefly: Alphascreen tyrosine kinase enzyme assay, CSF-1R (FMS) kinase domain. To be noted: read-out: FMS, FLT3, or HCK IC50_nM (FMS). The procedure:
For screening purposes, compounds (in 100% DMSO) were warmed at 37 degrees for at least 20 minutes before use. A […] stock was initially made in assay buffer, where the final concentration of DMSO was 0.3%. The stocks were then diluted in 384 well Optiplates (Packard) where the final concentration of the compound was […].
The kinase domain of human CSF1-R from codon I553 to Q961 was cloned into the pDest20 expression vector (Invitrogen). The CSF1-R plasmid was then transformed into competent DH10Bac cells (Gibco), and the recombinant baculovirus produced prepared for transfection into Sf9 insect cells.
Baculovirus preparations from each of the constructs were infected into either one or five liters of Sf9 cells (Invitrogen) grown in SF-900 medium (Invitrogen) to a cell density of approximately 1-2×10^6 cells/ml. Cells were infected with virus at a MOI of 0.8-3.0. Cells were harvested and lysed. Tyrosine kinase domains were purified by affinity chromatography on a glutathione-agarose column (Scientifix Pty. Ltd. catalog #: GSH-200).
Kinase assays were performed in 384 well Optiplates (Packard) using an Alphascreen Protein Tyrosine Kinase PY100 detection kit The compounds were pre-incubated with affinity purified PTK domain in the presence of phosphotyrosine assay buffer (10 mM HEPES, pH 7.5, 100 mM MgCl2, 25 mM NaCl, […] and 0.1% Tween 20) for 20 minutes. The compounds were then incubated with substrate in the presence of ATP. The substrate used was susbtrate-1 with the sequence biotin-EGPWLEEEEEAYGWMDF-NH2 [SEQ. ID. NO. 13] (final concentration […]). For HCK 80 μm ATP was used and incubated for 60 minutes. Alphascreen phosphotyrosine acceptor beads followed by streptavidin donor beads at a concentration of 1/100 in stop buffer were added to each well under subdued light and incubated for 2-3 hours., The Alphascreen plates were read on a Packard Fusion Alpha instrument.

The target of the next assay is T3, Flt 4(h) (Homo sapiens, UniProt P35916).
T3 construct: purchased Upstate Biotechnology (Dundee, UK), KinaseProfiler service
T3 sequence (P35916 25-1363): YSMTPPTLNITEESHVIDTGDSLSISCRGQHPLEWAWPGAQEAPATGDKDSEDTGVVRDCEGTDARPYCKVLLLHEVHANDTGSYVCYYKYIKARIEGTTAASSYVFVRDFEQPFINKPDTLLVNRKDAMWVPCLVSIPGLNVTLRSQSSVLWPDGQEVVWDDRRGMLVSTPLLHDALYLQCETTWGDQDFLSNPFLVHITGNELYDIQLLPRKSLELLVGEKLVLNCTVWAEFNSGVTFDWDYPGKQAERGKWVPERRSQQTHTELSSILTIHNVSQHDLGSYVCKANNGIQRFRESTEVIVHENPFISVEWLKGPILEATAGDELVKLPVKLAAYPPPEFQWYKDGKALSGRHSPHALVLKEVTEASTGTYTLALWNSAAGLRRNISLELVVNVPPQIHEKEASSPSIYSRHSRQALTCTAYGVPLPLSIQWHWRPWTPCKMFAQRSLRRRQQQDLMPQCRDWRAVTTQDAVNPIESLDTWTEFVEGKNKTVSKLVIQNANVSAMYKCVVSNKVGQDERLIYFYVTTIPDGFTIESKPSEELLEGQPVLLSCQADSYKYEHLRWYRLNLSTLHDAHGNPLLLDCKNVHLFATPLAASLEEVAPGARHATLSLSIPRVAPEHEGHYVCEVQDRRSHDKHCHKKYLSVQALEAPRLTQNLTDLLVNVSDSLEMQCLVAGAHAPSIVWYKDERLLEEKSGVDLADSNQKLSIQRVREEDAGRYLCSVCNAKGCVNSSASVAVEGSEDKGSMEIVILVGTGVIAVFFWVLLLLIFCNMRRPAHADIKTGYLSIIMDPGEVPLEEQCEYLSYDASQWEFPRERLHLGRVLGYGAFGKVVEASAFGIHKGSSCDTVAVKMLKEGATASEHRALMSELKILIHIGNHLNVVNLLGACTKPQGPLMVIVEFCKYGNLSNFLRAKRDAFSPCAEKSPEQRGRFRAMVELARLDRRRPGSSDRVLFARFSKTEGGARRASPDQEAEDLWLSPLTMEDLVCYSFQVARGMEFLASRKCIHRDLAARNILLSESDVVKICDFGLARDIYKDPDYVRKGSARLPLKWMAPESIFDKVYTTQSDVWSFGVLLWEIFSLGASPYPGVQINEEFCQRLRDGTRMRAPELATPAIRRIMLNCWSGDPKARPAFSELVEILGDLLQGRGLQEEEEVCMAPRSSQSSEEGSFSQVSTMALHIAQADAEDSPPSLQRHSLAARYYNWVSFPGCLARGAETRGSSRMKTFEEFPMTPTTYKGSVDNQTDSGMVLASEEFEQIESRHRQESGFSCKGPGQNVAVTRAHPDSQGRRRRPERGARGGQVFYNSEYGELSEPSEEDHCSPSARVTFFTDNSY
Briefly: Upstate KinaseProfiler enzyme assay, Flt 4. The note with it: 500 nM compound; read-out: Percent inhibition at 500 nM Flt 4(h). Summed up:
as §1

The target in another assay is T4, Flt 1(h) (Homo sapiens, UniProt P17948).
T4 construct: purchased Upstate Biotechnology (Dundee, UK), KinaseProfiler service
T4 sequence (P17948 27-1338): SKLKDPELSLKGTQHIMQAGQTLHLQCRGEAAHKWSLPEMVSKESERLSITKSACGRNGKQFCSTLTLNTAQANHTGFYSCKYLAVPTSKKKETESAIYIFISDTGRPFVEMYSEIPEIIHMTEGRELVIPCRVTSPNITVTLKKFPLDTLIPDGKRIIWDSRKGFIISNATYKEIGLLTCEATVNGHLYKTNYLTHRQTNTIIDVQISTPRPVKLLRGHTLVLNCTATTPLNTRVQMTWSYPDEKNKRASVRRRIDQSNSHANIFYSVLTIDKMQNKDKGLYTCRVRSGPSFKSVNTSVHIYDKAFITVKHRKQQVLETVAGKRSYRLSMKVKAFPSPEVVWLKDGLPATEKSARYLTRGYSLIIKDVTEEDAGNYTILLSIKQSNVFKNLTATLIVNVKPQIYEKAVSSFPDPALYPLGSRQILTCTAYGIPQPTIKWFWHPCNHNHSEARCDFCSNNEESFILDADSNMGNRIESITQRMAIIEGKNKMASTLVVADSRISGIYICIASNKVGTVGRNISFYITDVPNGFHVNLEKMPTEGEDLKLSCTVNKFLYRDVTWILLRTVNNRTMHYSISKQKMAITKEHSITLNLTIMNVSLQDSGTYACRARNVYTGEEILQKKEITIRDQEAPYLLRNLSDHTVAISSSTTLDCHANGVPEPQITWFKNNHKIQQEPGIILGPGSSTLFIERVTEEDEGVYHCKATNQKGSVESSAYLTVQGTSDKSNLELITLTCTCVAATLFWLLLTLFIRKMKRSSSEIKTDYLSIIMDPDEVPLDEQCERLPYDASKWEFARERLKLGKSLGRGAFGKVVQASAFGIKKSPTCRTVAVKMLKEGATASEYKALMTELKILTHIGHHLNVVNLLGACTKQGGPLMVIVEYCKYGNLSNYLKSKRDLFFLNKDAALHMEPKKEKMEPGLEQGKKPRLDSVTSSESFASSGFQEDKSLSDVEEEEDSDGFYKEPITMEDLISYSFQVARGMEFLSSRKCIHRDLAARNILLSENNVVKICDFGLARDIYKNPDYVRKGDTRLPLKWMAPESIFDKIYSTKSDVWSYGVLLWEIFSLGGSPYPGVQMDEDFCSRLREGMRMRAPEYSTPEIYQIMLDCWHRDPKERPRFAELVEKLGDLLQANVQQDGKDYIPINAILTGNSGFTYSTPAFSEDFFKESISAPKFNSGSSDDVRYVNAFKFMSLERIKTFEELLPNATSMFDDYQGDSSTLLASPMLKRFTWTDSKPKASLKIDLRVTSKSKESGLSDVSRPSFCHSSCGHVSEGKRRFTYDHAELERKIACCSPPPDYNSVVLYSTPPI
Briefly: Upstate KinaseProfiler enzyme assay, Flt 1. To be noted: 500 nM compound; read-out: Percent inhibition at 500 nM Flt 1(h). Summed up: as §1

A value given as a limit tells only on which side of the number the result lay.

T1 sequence (Q06187 whole entry): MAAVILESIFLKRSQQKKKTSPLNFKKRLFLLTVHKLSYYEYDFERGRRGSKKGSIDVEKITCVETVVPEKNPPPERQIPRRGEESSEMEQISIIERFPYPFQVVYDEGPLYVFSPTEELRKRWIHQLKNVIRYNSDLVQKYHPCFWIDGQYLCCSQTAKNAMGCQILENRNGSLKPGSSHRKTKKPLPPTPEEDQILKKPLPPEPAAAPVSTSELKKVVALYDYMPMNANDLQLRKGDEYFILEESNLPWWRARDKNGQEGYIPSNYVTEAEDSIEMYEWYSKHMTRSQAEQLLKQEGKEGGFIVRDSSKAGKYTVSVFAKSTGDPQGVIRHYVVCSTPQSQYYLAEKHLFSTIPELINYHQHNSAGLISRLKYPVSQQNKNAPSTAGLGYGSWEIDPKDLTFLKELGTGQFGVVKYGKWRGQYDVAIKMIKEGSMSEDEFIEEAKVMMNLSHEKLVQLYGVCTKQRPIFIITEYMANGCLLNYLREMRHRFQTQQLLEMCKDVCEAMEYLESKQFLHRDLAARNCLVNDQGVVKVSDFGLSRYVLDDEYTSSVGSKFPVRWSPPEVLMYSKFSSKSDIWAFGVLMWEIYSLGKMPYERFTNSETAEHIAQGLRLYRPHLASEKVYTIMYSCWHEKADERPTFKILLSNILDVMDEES

Broadly, the inhibition is the relative decrease from the control value, in per cent. In the case of `C=CC(=O)Nc1ccc(Sc2ccnc(Nc3ccc(OC)cc3)n2)cc1` [Compound 74, N-(4-(2-(4-methoxyphenylao)pyrimidin-4-ylthio)phenyl)acrylamide], at BTK(h), the inhibition at 0.5 µM was 100%.
Take `C=CC(=O)Nc1ccc(Sc2ccnc(Nc3ccc(N4CCC(N5CCCC5)CC4)cc3)n2)cc1` [Compound 87, N-(4-(2-(4-(4-(pyrrolidin-1-yl)piperidin-1-yl)phenylao)pyrimidin-4-ylthio)phenyl)acrylamide]: the inhibition at 0.5 µM at BTK(h) was determined as 100%.
With `C=CC(=O)Nc1ccc(Sc2ccnc(Nc3ccc(OC)c(O)c3)n2)cc1` [Compound 97], the inhibition at 0.5 µM on BTK(h) was determined as 100%.
Turning to `C=CC(=O)Nc1ccc(Sc2ccnc(Nc3ccc(N4CCS(=O)(=O)CC4)cc3)n2)cc1` [Compound 99, N-{4-[(2-{[4-(1,1-dioxo-1λ^6,4-thiomorpholin-4-yl)phenyl]ao}pyrimidin-4-yl)sulfanyl]phenyl}prop-2-enamide], the inhibition at 0.5 µM on BTK(h) was 100%.
As to `COc1ccc(Nc2nccc(Sc3ccc(NC(=O)CC#N)cc3)n2)cc1OC` [Compound 101, 2-cyano-N-(4-(2-(3,4-dimethoxyphenylao)pyrimidin-4-ylthio)phenyl)acetamide], the IC50 on human CSF1-R (FMS) was under 0.1 µM.
As for `CC#CC(=O)Nc1ccc(Sc2ccnc(Nc3ccc(N4CCOCC4)cc3)n2)cc1` [Compound 104, N-(4-(2-(4-morpholinophenylao)pyrimidin-4-ylthio)phenyl)but-2-ynamide], the inhibition at 0.5 µM at BTK(h) is 73%.
Same read-out and setting: in the case of `C=CC(=O)Nc1ccc(Sc2ccnc(Nc3cccc(OC)c3)n2)cc1` [Compound 105, N-(4-(2-(3-methoxyphenylao)pyrimidin-4-ylthio)phenyl)acrylamide] it was 100%; in that of `C=CC(=O)Nc1ccc(Sc2ccnc(Nc3cccc(C#N)c3)n2)cc1` [Compound 118, N-(4-(2-(3-cyanophenylao)pyrimidin-4-ylthio)phenyl)acrylamide], 100%.
On the same count and under the same terms, in the case of `C=CC(=O)Nc1cccc(Sc2ccnc(Nc3ccc(OC)cc3)n2)c1` [Compound 120, N-(3-(2-(4-methoxyphenylao)pyrimidin-4-ylthio)phenyl)acrylamide] it was 100%.
Take `C=CC(=O)Nc1ccc(Sc2nc(Nc3ccc(N4CCOCC4)cc3)ncc2C)cc1` [Compound 124, N-(4-(5-methyl-2-(4-morpholinophenylao)pyrimidin-4-ylthio)phenyl)acrylamide]: the inhibition at 0.5 µM on Flt 4(h), at BTK(h) and at Flt 1(h) was 100% in each case. Further, the IC50 at human CSF1-R (FMS) was under 0.5 µM.
`CC#CC(=O)Nc1ccc(Sc2nc(Nc3ccc(N4CCOCC4)cc3)ncc2C)cc1` [Compound 125, N-(4-(5-methyl-2-(4-morpholinophenylao)pyrimidin-4-ylthio)phenyl)but-2-ynamide]: at BTK(h), the inhibition at 0.5 µM stood at 100%.
With `Cc1cnc(Nc2ccc(N3CCOCC3)cc2)nc1Sc1ccc(N)cc1` [Compound 126, 4-(4-aophenylthio)-5-methyl-N-(4-morpholinophenyl)pyrimidin-2-ae], the inhibition at 0.5 µM turned out to be 99% on Flt 4(h) and 93% at Flt 1(h).
For the molecule `C=CC(=O)Nc1ccc(Sc2ccnc(Nc3ccc(C#N)cc3)n2)cc1` [Compound 131, N-(4-(2-(4-cyanophenylao)pyrimidin-4-ylthio)phenyl)acrylamide], on BTK(h), the inhibition at 0.5 µM was found to be 100%.
In the case of `CC(=O)Nc1ccc(Sc2nc(Nc3ccc(N4CCOCC4)cc3)ncc2C)cc1` [Compound 135, N-(4-(5-methyl-2-(4-morpholinophenylao)pyrimidin-4-ylthio)phenyl)acetamide], the inhibition at 0.5 µM on Flt 4(h) was determined as 99%; on Flt 1(h), 96%.
Take `C=CC(=O)Nc1ccc(Sc2ccnc(Nc3ccc(N4CCOCC4)cc3)n2)c(Cl)c1C` [Compound 161, N-(3-chloro-2-methyl-4-(2-(4-morpholinophenylao)pyrimidin-4-ylthio)phenyl)acrylamide]: the inhibition at 0.5 µM on BTK(h) amounted to 100%.
Regarding `C=CC(=O)Nc1cc(C)c(Sc2nc(Nc3ccc(N4CCOCC4)cc3)ncc2C)c(C)c1` [Compound 164, N-(3,5-dimethyl-4-(5-methyl-2-(4-morpholinophenylao)pyrimidin-4-ylthio)phenyl)acrylamide], the inhibition at 0.5 µM at Flt 4(h) was 97%; at Flt 1(h), 44%.
Consider `C=CC(=O)Nc1ccc(Sc2nc(Nc3ccc(N4CCC(C(=O)OCC)CC4)cc3)ncc2C)cc1` [Compound 292, ethyl 1-(4-(4-(4-acrylamidophenylthio)-5-methylpyrimidin-2-ylao)phenyl)piperidine-4-carboxylate], for which the inhibition at 0.5 µM at Flt 4(h) stood at 100%; at BTK(h) it was 3%; on Flt 1(h), 67%.
Consider `C=CC(=O)Nc1ccc(Sc2nc(Nc3ccc(CNS(C)(=O)=O)cc3)ncc2C)cc1` [Compound 294, N-(4-(5-methyl-2-(4-(methylsulfonamidomethyl)phenylao)pyrimidin-4-ylthio)phenyl)acrylamide], for which the inhibition at 0.5 µM was found to be 100% at Flt 4(h), 77% at BTK(h) and 94% on Flt 1(h).
In the case of `C=CC(=O)Nc1ccc(Sc2nc(Nc3ccc(N4CCOCC4)cc3)ncc2-c2ccccc2)cc1` [Compound 307, N-(4-(2-(4-morpholinophenylao)-5-phenylpyrimidin-4-ylthio)phenyl)acrylamide], the inhibition at 0.5 µM at Flt 4(h) came to 93%; on Flt 1(h), 19%.
With `C=CC(=O)Nc1ccc(Sc2ccnc(Nc3ccccc3)n2)cc1` [Compound 350, N-(4-(2-(phenylao)pyrimidin-4-ylthio)phenyl)acrylamide], the inhibition at 0.5 µM on BTK(h) came to 100%.
Regarding `C=CC(=O)Nc1ccc(Sc2ccnc(Nc3ccc(S(N)(=O)=O)cc3)n2)cc1` [Compound 352, N-(4-(2-(4-sulfamoylphenylao)pyrimidin-4-ylthio)phenyl)acrylamide], the inhibition at 0.5 µM at BTK(h) was 100%.
Take `C=CC(=O)Nc1ccc(Sc2ccnc(Nc3ccc(Cl)cc3)n2)cc1` [Compound 353, N-(4-(2-(4-chlorophenylao)pyrimidin-4-ylthio)phenyl)acrylamide]: the inhibition at 0.5 µM at BTK(h) stood at 100%.
On the same count and under the same terms, the result for `C=CC(=O)Nc1ccc(Sc2ccnc(Nc3ccc(F)c(C#N)c3)n2)cc1` [Compound 354, N-(4-(2-(3-cyano-4-fluorophenylao)pyrimidin-4-ylthio)phenyl)acrylamide] reads 100%; that for `C=CC(=O)Nc1ccc(Sc2ccnc(Nc3cccc(C(=O)OC)c3)n2)cc1` [Compound 356, methyl 3-(4-(4-acrylamidophenylthio)pyrimidin-2-ylao)benzoate], 100%.
As for `C=CC(=O)Nc1ccc(Sc2ccnc(Nc3ccc(C(=O)OC)cc3)n2)cc1` [Compound 357, methyl 4-(4-(4-acrylamidophenylthio)pyrimidin-2-ylao)benzoate], the inhibition at 0.5 µM was 99% on Flt 4(h) and 76% at Flt 1(h).
For `C=CC(=O)Nc1ccc(Sc2ccnc(Nc3cccc(S(N)(=O)=O)c3)n2)cc1` [Compound 364, N-(4-(2-(3-sulfamoylphenylao)pyrimidin-4-ylthio)phenyl)acrylamide], the results for the inhibition at 0.5 µM at Flt 4(h) and on Flt 1(h) were 99% and 97%, respectively.

The values above are taken from US8846704B2, “Thiopyrimidine-based compounds and uses thereof” (YM Biosciences Austraila Pty Ltd, priority 2007, dated 2014).
